The assay deals with Indoleamine 2,3-dioxygenase 1 (Homo sapiens, UniProt P14902). The assay can be described thus: Enzyme Inhibition Assay. The note with it: pH 6.5; 37 °C. The method, then: The IC50 inhibition assays were performed in a 96-well microtiter plate format using purified recombinant IDO, which was added to the substrate, L-tryptophan (L-Trp), and the inhibitor. After the reaction, the product N-formylkynurenine was converted to kynurenine. The yellow color generated from reaction with kynurenine was measured at 490 nm using a microtiter plate reader. The data were analyzed using Graph Pad Prism 4 software (Graph Pad Software Inc.).
Sequence of Indoleamine 2,3-dioxygenase 1 (P14902 whole entry): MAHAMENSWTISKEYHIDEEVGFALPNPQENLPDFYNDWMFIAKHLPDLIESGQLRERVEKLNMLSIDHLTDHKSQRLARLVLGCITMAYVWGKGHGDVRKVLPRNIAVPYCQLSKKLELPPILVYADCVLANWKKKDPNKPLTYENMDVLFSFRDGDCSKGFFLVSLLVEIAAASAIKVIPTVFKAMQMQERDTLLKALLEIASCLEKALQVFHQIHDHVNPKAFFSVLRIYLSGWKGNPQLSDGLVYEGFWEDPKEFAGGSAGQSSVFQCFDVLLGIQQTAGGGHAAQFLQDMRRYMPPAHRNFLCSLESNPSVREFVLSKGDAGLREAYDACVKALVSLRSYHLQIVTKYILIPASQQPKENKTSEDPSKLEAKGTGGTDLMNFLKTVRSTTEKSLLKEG

Broadly, the IC50 is the concentration that gives 50% inhibition. Lower therefore signals greater potency in that assay. With `O=C1CC(=O)c2ccccc2C1=O`, it took 675 µM to reach half-maximal inhibition (IC50).
Under `CC1=CC(=O)c2ccccc2C1=O` [Vitamin K3] stands 1.1 µM.

The values above are taken from BindingDB's records for doi:10.1021/jm7014155 (Bryn Mawr College, 2008).
